According to patent US8188059B2, “Compounds and methods for modulating expression of GCGR” (Isis Pharmaceuticals, Inc., priority 2006, dated 2012):
Strand notation (5' to 3'): a small letter for the sugar, then the base; units joined by * are phosphorothioate-linked, units joined directly phosphodiester-linked; [ ] holds rarer units or linkages, { } end groups; capitals alone tell only the bases. e = 2'-O-(2-methoxyethyl) (MOE); [5mC] = 5-methylcytosine; d = 2'-deoxy (DNA)

Assays:
PTP1B mRNA [1] = test: Dose response for human PTP1B in HuVEC cells, Primer Probe Set 198 (Example 25, Table 86); type: cell-based
Description: (§1) Human vascular endothelial (HuVEC) cells were plated at a density of 5000 cells per well and treated as described herein with nM concentrations of short antisense compound as indicated in Table 86. After the treatment period, RNA was isolated from the cells and PTP1B mRNA levels were measured by quantitative real-time PCR, as described herein. PTP1B mRNA levels were adjusted according to total RNA content as measured by RIBOGREEN®. Two different human PTP1B primer probe sets were used to measure mRNA levels. Results with Primer Probe Set (PPS) 198 are shown in Table 86, and results with Primer Probe Set (PPS) 3000 are shown in Table 87. Results are presented as percent inhibition of PTP1B mRNA expression relative to untreated control cells.

PTP1B mRNA [2] = test: Dose response for human PTP1B in HuVEC cells, Primer Probe Set 3000 (Example 25, Table 87); type: cell-based
Description: as §1

PCSK9 mRNA = type: cell-based, human; conditions: Hep3B cells, 100 nM, relative to untreated control cells; for % Inhib (PCSK9 mRNA): 0 = no reduction observed
Description: When cells reached appropriate confluency, they were treated with oligonucleotide using LIPOFECTIN® as described. […] Cells were treated and data were obtained in duplicate or triplicate. […] Cells were harvested 16-24 hours after oligonucleotide treatment.
Short antisense compounds targeted to a PCSK9 nucleic acid were tested for their effects on PCSK9 mRNA in vitro. The Isis No, gapmer motif and SEQ ID NO of each short antisense compound are shown again in Table 75. Cultured Hep3B cells were treated with 100 nM of short antisense compound. 5-10-5 MOE gapmers targeted to a PCSK9 nucleic acid were used as positive controls. After the treatment period, RNA was isolated from the cells and PCSK9 mRNA levels were measured by quantitative real-time PCR, as described herein. PCSK9 mRNA levels were adjusted according to total RNA content as measured by RIBOGREEN®. Results are presented in Table 75 as percent inhibition of PCSK9 (% Inhib), relative to untreated control cells.

[3] = Triglyceride, cholesterol and glucose levels, pre-bleed and post-bleed (Example 4, Table 34); type: in vivo, mouse
Description: Eight-week old male C57/BL6 mice (Jackson Laboratory, Bar Harbor, Me.) were administered a single dose of GCGR oligonucleotide by intraperitoneal injection at a concentration of […]. Each dose group consisted of four animals. Shown in Table 31 are the sequences, motifs and conjugates of the GCGR antisense compounds used in this study. Bolded residues indicate 2′-O-methoxyethyl (2′-MOE) moieties. All compounds comprise phosphorothioate internucleoside linkages throughout and each cytosine is replaced with 5-methylcytosine. ISIS 386626, ISIS 386627 and ISIS 386628 further comprise a C16 conjugate group attached to the 2′-O position of the sugar via a diamide linkage (2′-OCH2C(═O)N(H)(CH2)4N(H)C(═O)—(CH2)15CH3). GCGR antisense compounds target published GCGR sequences, including Genbank® Accession No. BC031885.1 (SEQ ID NO: 7).
Mice were sacrificed 48 hours following injection to determine serum transaminase levels (Table 32); liver, white adipose tissue (WAT), spleen and kidney weight (Table 33); cholesterol, triglyceride and glucose levels (Table 34); GCGR mRNA levels (Tables 35-41); and full-length and total oligonucleotide concentration in liver and kidney (Table 42). Endpoints were assessed using methods described herein and well known to those of ordinary skill in the art. Data is included from a pre-treatment bleed (Pre-Bleed) and post-treatment bleed (Post-Bleed).

| Substance | % Inhibition of PTP1B mRNA (PTP1B mRNA [1]; PPS 198, 1.11 nM) [%] | % Inhibition of PTP1B mRNA (PTP1B mRNA [1]; PPS 198, 3.33 nM) [%] | % Inhibition of PTP1B mRNA (PTP1B mRNA [1]; PPS 198, 10.0 nM) [%] | % Inhibition of PTP1B mRNA (PTP1B mRNA [1]; PPS 198, 30.0 nM) [%] | % Inhibition of PTP1B mRNA (PTP1B mRNA [2]; PPS 3000, 1.11 nM) [%] | % Inhibition of PTP1B mRNA (PTP1B mRNA [2]; PPS 3000, 3.33 nM) [%] | % Inhibition of PTP1B mRNA (PTP1B mRNA [2]; PPS 3000, 10.0 nM) [%] | % Inhibition of PTP1B mRNA (PTP1B mRNA [2]; PPS 3000, 30.0 nM) [%] | % Inhib (PCSK9 mRNA) (PCSK9 mRNA) [%] | other results |
| --- | --- | --- | --- | --- | --- | --- | --- | --- | --- | --- |
| 398105 (antisense eT*eG*d[5mC]*dA*d[5mC]*dA*dG*dG*d[5mC]*dA*dG*dG*eT*eT) [compound 398105] | 0 | 25 | 79 | 90 | 0 | 35 | 79 | 93 |  |  |
| 398112 (antisense e[5mC]*eA*dG*d[5mC]*d[5mC]*dT*dG*dG*d[5mC]*dA*d[5mC]*d[5mC]*eT*eA) [compound 398112] | 1 | 10 | 73 | 93 | 0 | 26 | 77 | 94 |  |  |
| 398120 (antisense eG*eT*dT*d[5mC]*dA*dA*dG*d[5mC]*dG*dG*d[5mC]*d[5mC]*eT*eA) [compound 398120] | 0 | 31 | 80 | 96 | 0 | 35 | 79 | 93 |  |  |
| 398173 (antisense e[5mC]*dA*dG*d[5mC]*d[5mC]*dT*dG*dG*dG*d[5mC]*dA*e[5mC]) [compound 398173] | 0 | 4 | 80 | 97 | 0 | 18 | 80 | 90 |  |  |
| 399096 (antisense eT*eG*d[5mC]*dT*d[5mC]*dG*dA*dA*d[5mC]*dT*d[5mC]*d[5mC]*eT*eT) [compound 399096] | 3 | 30 | 78 | 96 | 0 | 23 | 75 | 94 |  |  |
| 399102 (antisense eG*eA*dA*dG*dT*d[5mC]*dA*d[5mC]*dT*dG*dG*d[5mC]*eT*eT) [compound 399102] | 0 | 15 | 62 | 88 | 0 | 9 | 60 | 87 |  |  |
| 399113 (antisense eG*eT*dT*dA*dG*dG*d[5mC]*dA*dA*dA*dG*dG*eG*e[5mC]) [compound 399113] | 0 | 31 | 72 | 90 | 0 | 9 | 65 | 90 |  |  |
| 399132 (antisense eG*eG*dG*d[5mC]*dT*dG*dA*dG*dT*dG*dA*d[5mC]*e[5mC]*e[5mC]) [compound 399132] | 0 | 32 | 75 | 95 | 0 | 26 | 76 | 91 |  |  |
| 399173 (antisense eA*eT*dG*d[5mC]*dT*dA*dG*dT*dG*d[5mC]*dA*d[5mC]*eT*eA) [compound 399173] | 0 | 24 | 63 | 89 | 0 | 11 | 59 | 92 |  |  |
| 400355 (antisense eA*eG*dA*d[5mC]*dA*d[5mC]*d[5mC]*d[5mC]*dT*d[5mC]*dA*d[5mC]*e[5mC]*e[5mC]) [compound 400355] |  |  |  |  |  |  |  |  | 0 |  |
| 400356 (antisense eT*eA*dG*dA*d[5mC]*dA*d[5mC]*d[5mC]*d[5mC]*dT*d[5mC]*dA*e[5mC]*e[5mC]) [compound 400356] |  |  |  |  |  |  |  |  | 0 |  |
| 400357 (antisense eT*eG*dG*d[5mC]*dA*dG*d[5mC]*dA*dG*dG*dA*dA*eG*e[5mC]) [compound 400357] |  |  |  |  |  |  |  |  | 0 |  |
| 400358 (antisense eA*eT*dG*dG*d[5mC]*dA*dG*d[5mC]*dA*dG*dG*dA*eA*eG) [compound 400358] |  |  |  |  |  |  |  |  | 12 | % Inhibition Range (PCSK9 mRNA) (PCSK9 mRNA): 10-20% |
| 400359 (antisense e[5mC]*eA*dT*dG*dG*d[5mC]*dA*dG*d[5mC]*dA*dG*dG*eA*eA) [compound 400359] |  |  |  |  |  |  |  |  | 0 |  |
| 400360 (antisense eG*e[5mC]*dA*dT*dG*dG*d[5mC]*dA*dG*d[5mC]*dA*dG*eG*eA) [compound 400360] |  |  |  |  |  |  |  |  | 38 | % Inhibition Range (PCSK9 mRNA) (PCSK9 mRNA): 30-40% |
| 400361 (antisense eG*eG*d[5mC]*dA*dG*d[5mC]*dA*dG*dA*dT*dG*dG*e[5mC]*eA) [compound 400361] |  |  |  |  |  |  |  |  | 2 |  |
| 400362 (antisense e[5mC]*eG*dG*d[5mC]*dA*dG*d[5mC]*dA*dG*dA*dT*dG*eG*e[5mC]) [compound 400362] |  |  |  |  |  |  |  |  | 16 | % Inhibition Range (PCSK9 mRNA) (PCSK9 mRNA): 10-20% |
| 400363 (antisense e[5mC]*e[5mC]*dG*dG*d[5mC]*dA*dG*d[5mC]*dA*dG*dA*dT*eG*eG) [compound 400363] |  |  |  |  |  |  |  |  | 8 |  |
| 400364 (antisense eT*e[5mC]*d[5mC]*dG*dG*d[5mC]*dA*dG*d[5mC]*dA*dG*dA*eT*eG) [compound 400364] |  |  |  |  |  |  |  |  | 0 |  |
| 400365 (antisense e[5mC]*eT*d[5mC]*d[5mC]*dG*dG*d[5mC]*dA*dG*d[5mC]*dA*dG*eA*eT) [compound 400365] |  |  |  |  |  |  |  |  | 25 | % Inhibition Range (PCSK9 mRNA) (PCSK9 mRNA): 20-30% |
| 400366 (antisense eG*e[5mC]*dT*d[5mC]*d[5mC]*dG*dG*d[5mC]*dA*dG*d[5mC]*dA*eG*eA) [compound 400366] |  |  |  |  |  |  |  |  | 15 | % Inhibition Range (PCSK9 mRNA) (PCSK9 mRNA): 10-20% |
| 400367 (antisense eG*eG*d[5mC]*dT*d[5mC]*d[5mC]*dG*dG*d[5mC]*dA*dG*d[5mC]*eA*eG) [compound 400367] |  |  |  |  |  |  |  |  | 12 | % Inhibition Range (PCSK9 mRNA) (PCSK9 mRNA): 10-20% |
| 400368 (antisense e[5mC]*eG*dG*d[5mC]*dT*d[5mC]*d[5mC]*dG*dG*d[5mC]*dA*dG*e[5mC]*eA) [compound 400368] |  |  |  |  |  |  |  |  | 11 | % Inhibition Range (PCSK9 mRNA) (PCSK9 mRNA): 10-20% |
| 400369 (antisense e[5mC]*e[5mC]*dG*dG*d[5mC]*dT*d[5mC]*d[5mC]*dG*dG*d[5mC]*dA*eG*e[5mC]) [compound 400369] |  |  |  |  |  |  |  |  | 0 |  |
| 400370 (antisense eG*e[5mC]*d[5mC]*dG*dG*d[5mC]*dT*d[5mC]*d[5mC]*dG*dG*d[5mC]*eA*eG) [compound 400370] |  |  |  |  |  |  |  |  | 13 | % Inhibition Range (PCSK9 mRNA) (PCSK9 mRNA): 10-20% |
| 400371 (antisense eA*eG*dT*dT*dA*d[5mC]*dA*dA*dA*dA*dG*d[5mC]*eA*eA) [compound 400371] |  |  |  |  |  |  |  |  | 0 |  |
| ISIS 386628: GCGR 2-10-2 MOE gapmer with C16 conjugate group at the 2′-O position via a diamide linkage (antisense TGTCTTGCTGCTTT; chemistry not fully specified) |  |  |  |  |  |  |  |  |  | post-bleed glucose levels ([3]; C57/BL6 mice, single i.p. dose, 48 hours): generally led to a decrease; post-bleed triglyceride levels ([3]; relative to the 5-10-5 MOE gapmer): greatest dose-dependent effect |
